Assay results taken from patent publication US20060009357A1, “Azo dye, ink jet recording ink, heat sensitive recording material, color toner, color filter, ink jet recording method, ink cartridge and ink jet printer” (FUJI PHOTO FILM CO., LTD., priority 2004, published 2006).

What was measured:
[1] = Ozone resistance of recorded image (ozone gas chamber); type: physicochemical; conditions: dye retention after ozone gas 5 ppm for 24 hours; three density points; Super Photo Grade paper
Description: An image was recorded on photo glossy paper (Super Photo Grade, available from Fuji Photo Film Co., Ltd.) on ink jet printer (PM-770C, available from Seiko Epson Corp.) by using each of ink liquids A to I. The resulting image was evaluated for hue, light fastness, and ozone resistance as follows. As to ozone resistance, the recorded image was left to stand in a chamber having an ozone gas concentration of 5 ppm for 24 hours. A dye retention after exposure to ozone was obtained in the same manner as for evaluation of light fastness. The ozone concentration in the chamber was set with an ozone gas monitor (OZG-EM-01, available from […] Co., Ltd.). An image having a dye retention of 70% or higher at every measuring point was graded A. An image having a dye retention lower than 70% at one or two out of three points was graded B. An image having a dye retention lower than 70% at every point was graded C.

[2] = Light fastness of recorded image (xenon light, weatherometer); type: physicochemical; set-up: key: An image having a dye retention of 80% or higher at every measuring point was graded A; An image having a dye retention lower than 80% at one or two out of three points was graded B; An image having a dye retention lower than 80% at every point was graded C; conditions: dye retention after xenon light 85,000 lux for 7 days; initial densities 1, 1.5, 2.0; Super Photo Grade paper
Description: An image was recorded on photo glossy paper (Super Photo Grade, available from Fuji Photo Film Co., Ltd.) on ink jet printer (PM-770C, available from Seiko Epson Corp.) by using each of ink liquids A to I. The resulting image was evaluated for hue, light fastness, and ozone resistance as follows.
As to light fastness, the image density immediately after recording (initial density: Ci) was measured with a reflection densitometer X-Rite 310TR. After the image was exposed to xenon light (85,000 lux) for 7 days in a weatherometer (Atlas C.65, from Atlas Electric Devices Co.), the image density (Cf) was measured again at three points whose initial densities were 1, 1.5, and 2.0. A dye retention (%) was calculated from equation: Dye retention (%)=[…]
An image having a dye retention of 80% or higher at every measuring point was graded A. An image having a dye retention lower than 80% at one or two out of three points was graded B. An image having a dye retention lower than 80% at every point was graded C.

SMILES | Ozone fastness [1] | Light Fastness [2]
O=C(O)c1ccccc1/N=N/c1c(S(=O)(=O)O)cc2cc(S(=O)(=O)[O-])cc(Nc3nc(O)nc(Nc4ccccc4C(=O)O)n3)c2c1O.[Na+] [h-3] | C (An image having a dye retention lower than 70% at every point was graded C) | C (An image having a dye retention lower than 80% at every point was graded C)
Cn1c(=O)cc2c3c(c(Nc4ccc(Nc5nc(O)nc(Nc6cc(S(=O)(=O)[O-])ccc6S(=O)(=O)O)n5)cc4S(=O)(=O)O)ccc31)C(=O)c1ccccc1-2.[Na+] [h-2] | C (An image having a dye retention lower than 70% at every point was graded C) | B
